Results from patent US4412998A, “Certain 4-(1-piperidino)-phenyl-nicotinates” (Merz & Company, priority 1979, dated 1983).

Tests used:
[1] = cited from earlier work; for reduction of free fatty acids (in words): test animals, low dosage between 0.5 and 30 mg/kg body weight
in vivo = details: rat
[2] = Cholesterol reduction in rats on high-fat diet; assay type: in vivo, female Wistar rats; details: Rattus norvegicus, read-out: Chol. Red. in %
Method: (§1) Additionally, experiments on female Wistar rats were carried out. For a period of 3 weeks the animals received a special diet with a very high fat content. Starting from the second week, half the rats were treated with a dosage of 100 and 25 mg/kg body weight. After the third week blood samples were taken 18 hours after administration of the last dose. Triglyceride and cholesterol concentrations were compared with that of the untreted animals. Cholesterol and triglycerides were determined with the aid of the Boehringer enzymatic test.

ED50 in rat (Table 1) = assay type: in vivo
[3] = Triglyceride reduction in rats on high-fat diet; assay type: in vivo, female Wistar rats; details: Rattus norvegicus, high fat diet 3 weeks, blood 18 hours after last dose, read-out: Triglyc. Red. in %
Method: as §1

[4] = high fat diet 3 weeks, blood 18 hours after last dose
[5] = 100 mg/kg, high fat diet 3 weeks, blood 18 hours after last dose

Compound	LD50 (in vivo) [mg/kg]	selectivity ratio (in vivo)	ED50 (ED50 in rat (Table 1)) [mg/kg]	inhibition in vivo at 100 mg/kg [2, 5] [%]	inhibition in vivo at 100 mg/kg [3] [%]	other results
OCc1cccnc1 [3-pyridyl carbinol]	–	–	–	–	–	reduction of free fatty acids (in words) [1]: great reduction of the free fatty acids
Cl.O=C(Oc1ccccc1C1CCCCC1)c1cccnc1 [Example 6, o-cyclohexylphenyl nicotinate hydrochloride]	2050	93	22	–	–	inhibition in vivo at 25 mg/kg [2, 4]: 18%; inhibition in vivo at 25 mg/kg [3]: 16%
O=C(Oc1ccc(C(=O)c2ccc(Cl)cc2)cc1)c1cccnc1 [Example 10, p-chlorobenzoylphenyl nicotinate]	–	–	–	29	–	–
O=C(Oc1ccc(C23CC4CC(CC(C4)C2)C3)cc1)c1cccnc1 [Example 2, p-(1-adamantylphenyl)-nicotinate]	3200	47	68	28	47	–
CC(C)(C)c1cc(C2CCCCC2)ccc1OC(=O)c1cccnc1 [Example 8, 2-t-butyl-4-cyclohexylphenyl nicotinate]	1700	56	30	–	–	inhibition in vivo at 25 mg/kg [2, 4]: 9%; inhibition in vivo at 25 mg/kg [3]: 8%
CC(C)(Oc1ccc(Cl)cc1)C(=O)Oc1ccc(C(=O)CC23CC4CC(CC(C4)C2)C3)cc1 [Example 3, 2-(p-chlorophenoxy)-isobutyric acid-p-(1-adamantylacetyl)-phenyl ester]	–	–	–	27	35	–
O=C(Oc1cccc2c1CCCC2)c1cccnc1 [Example 7, 5,6,7,8-Tetrahydro-1-naphthyl-nicotinate]	–	–	–	22	18	–
O=C(O)c1cccnc1 [Nicotinic acid, nicotinic acid, reference compound]	4000	8	~500	–	–	influence on lipids (in words) ([1]; background): act predominantly on elevated cholesterol values and free fatty acids; side effects (in words) ([1]; background): flush, headache, nausea, vomiting; reduction of free fatty acids (in words) [1]: great reduction of the free fatty acids; inhibition in vivo at 100 mg/kg ([2]; 18 h): 7%
CC(C)(Oc1ccc(Cl)cc1)C(=O)OCc1cccnc1 [3-pyridyl carbinol ester of clofibric acid]	–	–	–	–	–	influence on lipids (in words) ([1]; background): effective lipid- and cholesterol-lowering component
CCOC(=O)C(C)(C)Oc1ccc(Cl)cc1 [clofibrate, ethyl ester of 2-(p-chlorophenoxy)-isobutyric acid, reference compound]	1500	–	~300	–	8	cases with cholesterol (CH) in the β- and α-lipoproteins further increased ([1]; in vivo): about 20%; fall of the initial values of triglycerides (TG) and pre-β-lipoproteins ([1]; in vivo): up to 50%
O=C(Oc1ccc(C2CCCCC2)cc1)c1cccnc1 [Example 1, p-cyclohexylphenyl nicotinate]	2200	44	50	45	19	–
CC(C)(c1ccccc1)c1ccc(OC(=O)c2cccnc2)cc1 [Example 9, p-cumylphenyl nicotinate]	–	–	–	24	1	–
